Test results reported in US9895340B2, “Fluorinated benzofuran derivatives” (SciFluor Life Sciences, Inc., priority 2012, dated 2018).
Read-outs that look alike come from different tables or passages of the source.

Key:
Assay type in all cases: cell-based
hNav1.5 sodium channels = biological target: T1, hNav1.5 sodium channels (Homo sapiens, UniProt Q14524); assay: hNav1.5 sodium channel automated patch clamp; details: CHO cells
T1 construct: expressed in transfected cells; host or cells: CHO cells
Protocol: (§1) Compounds of the present invention were tested for their anti-arrhythmic activity in a series of in vitro cardiac ion channel assays using cloned human channels expressed in CHO cells or HEK293 cells: • 1. Cloned L-type calcium channels (hCav1.2, encoded by the human CACNA1C gene and coexpressed with the (32 subunit, encoded by the human CACNB2 gene and the α2δ1 subunit encoded by the human CACNA2D1 gene, in CHO cells), responsible for Ica,L, high threshold calcium current. • 2. Cloned hERG potassium channels (encoded by the KCNH2 gene and expressed in human embryonic kidney, HEK293, cells) responsible for IKr. • 3. Cloned hKir2.1 potassium channels (encoded by the human KCNJ2 gene and expressed in HEK293 cells), responsible for IKI, inwardly rectifying potassium current. • 4. Cloned hKvLQT1/hminK potassium channels (encoded by the human KCNQ1 and KCNE1 genes and coexpressed in CHO cells), responsible for IKs, slow delayed rectifier potassium current. • 5. Cloned hKv1.5 potassium channels (encoded by the human KCNA5 gene and expressed in CHO cells), responsible for IKur, ultra-rapid delayed rectifier potassium current. • 6. Cloned hNav1.5 sodium channels (SCN5A gene, expressed in CHO cells). • 7. Cloned hKir3.1/hKir3.4 potassium channels (expressed by the human KCNJ3 and KCNJ5 genes and co-expressed in HEK293 cells) responsible for IACh, inwardly rectifying potassium current.
(§2) One concentration of a compound of the present invention was applied for a […] interval via disposable polyethylene micropipette tips to naïve cells (n≧2, where n=the number cells/concentration). Each solution exchange, performed in quadruplicate, consisted of aspiration and replacement of 45 μL volume of the extracellular well of the Sealchip16. Duration of exposure to the test compound was three minutes. For the hKir3.1/hKir3.4 assay, two concentrations of a compound of the present invention were used and the duration of exposure was 3 minutes.
(§3) In preparation for an automated patch clamp procedure recording session, intracellular solution was loaded into the intracellular compartments of the Sealchip16 or Qplate planar electrode. Cell suspension was pipetted into the extracellular compartments of the Sealchip16 or Qplate planar electrode. After establishment of a whole-cell configuration, membrane currents were recorded using dual-channel patch clamp amplifiers in the PatchXpress® or Qpatch HT® system. Before digitization, the current records were low-pass filtered at one-fifth of the sampling frequency.
(§4) Valid whole-call recordings met the following criteria: • 1. Membrane resistance (Rm)≧200 MΩ • 2. Leak current≦25% channel current. hCav1.2 Test Procedure
Onset and steady-state block of hNav1.5 current was measured using double pulse pattern consisting of a series of two depolarizing test pulses to −15 mV. From a holding potential of −80 mV, an initial hyperpolarizing conditioning pre-pulse (−120 mV amplitude, 200 ms duration,) was followed immediately by the first depolarizing test pulse to −15 mV (200 ms duration). This was followed by a hyperpolarizing conditioning inter-pulse to −80 mV (200 ms duration) and then a second depolarizing test pulse to −15 mV for 20 ms. The pulse pattern was repeated at 10 s intervals and peak current amplitudes at both test pulses were measured.

[1] = biological target: T2, hKir3.1/hKir3.4 potassium channels (Homo sapiens, UniProt P48544+P48549); assay: hKir3.1/hKir3.4 potassium channel automated patch clamp; details: HEK293 cells; for inhibition at 1 µM: read-out: K(ach) @ 1 μM ion channel inhibition; for inhibition at 10 µM: read-out: K(ach) ion channel inhibition
T2 construct: expressed in transfected cells; host or cells: HEK293 cells
T2 sequence (P48549 1-501): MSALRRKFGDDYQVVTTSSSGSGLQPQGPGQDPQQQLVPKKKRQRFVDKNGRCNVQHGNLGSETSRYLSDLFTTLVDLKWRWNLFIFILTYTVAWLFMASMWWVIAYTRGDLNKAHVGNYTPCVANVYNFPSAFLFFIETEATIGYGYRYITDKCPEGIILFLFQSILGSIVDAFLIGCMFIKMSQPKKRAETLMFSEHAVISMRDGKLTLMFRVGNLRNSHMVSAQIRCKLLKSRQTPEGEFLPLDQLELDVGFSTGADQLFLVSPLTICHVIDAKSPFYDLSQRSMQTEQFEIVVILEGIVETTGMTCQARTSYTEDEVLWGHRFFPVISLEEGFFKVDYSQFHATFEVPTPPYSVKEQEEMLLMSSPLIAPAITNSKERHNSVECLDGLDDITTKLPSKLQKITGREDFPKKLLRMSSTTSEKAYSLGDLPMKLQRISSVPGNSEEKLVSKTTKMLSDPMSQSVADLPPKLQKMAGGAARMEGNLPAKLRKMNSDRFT
T2 sequence (P48544 1-419): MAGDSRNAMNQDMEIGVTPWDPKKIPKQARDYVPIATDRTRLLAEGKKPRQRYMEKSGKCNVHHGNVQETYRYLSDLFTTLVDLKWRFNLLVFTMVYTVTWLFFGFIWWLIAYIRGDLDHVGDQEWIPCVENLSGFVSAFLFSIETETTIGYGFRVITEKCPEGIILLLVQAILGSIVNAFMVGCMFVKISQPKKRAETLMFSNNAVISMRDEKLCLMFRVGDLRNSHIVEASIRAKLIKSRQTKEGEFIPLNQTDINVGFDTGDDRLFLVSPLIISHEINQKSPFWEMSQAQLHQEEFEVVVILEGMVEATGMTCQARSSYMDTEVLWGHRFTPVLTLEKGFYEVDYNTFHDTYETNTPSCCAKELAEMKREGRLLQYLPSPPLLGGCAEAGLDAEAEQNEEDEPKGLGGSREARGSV
Protocol: as §1, §2, §3, §4
The in vitro effects of the compounds of the present invention were evaluated at room temperature using the PatchXpress (Model 7000A, Molecular Devices, Union City, Calif.), an automated parallel patch clamp system.

[2] = biological target: T3, hKir2.1 potassium channels (Homo sapiens, UniProt P63252); assay: hKir2.1 potassium channel automated patch clamp; details: HEK293 cells, read-out: Kir2.1 ion channel inhibition
T3 construct: expressed in transfected cells; host or cells: HEK293 cells
T3 sequence (P63252 1-427): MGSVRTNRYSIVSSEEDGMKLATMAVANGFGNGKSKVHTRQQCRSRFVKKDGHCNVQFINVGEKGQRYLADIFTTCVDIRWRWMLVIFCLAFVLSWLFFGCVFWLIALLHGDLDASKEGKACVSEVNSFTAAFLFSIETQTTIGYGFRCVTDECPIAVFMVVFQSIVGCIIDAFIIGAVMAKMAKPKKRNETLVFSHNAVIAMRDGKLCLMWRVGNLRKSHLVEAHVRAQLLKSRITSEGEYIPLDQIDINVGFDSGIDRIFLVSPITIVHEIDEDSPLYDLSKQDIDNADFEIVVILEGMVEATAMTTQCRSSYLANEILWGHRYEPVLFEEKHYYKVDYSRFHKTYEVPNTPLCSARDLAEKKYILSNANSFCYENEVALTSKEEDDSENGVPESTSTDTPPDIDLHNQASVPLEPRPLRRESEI
Protocol: as §1, §2
as §3, with “Before digitization, the current records were low-pass filtered at one-fifth of the sampling frequency.” left out
Onset and steady state block of hKir2.1 current was measured using a pulse pattern with fixed amplitudes (hyperpolarization: −110 mV amplitude, 300 ms duration) repeated at 10 s intervals from a holding potential of −70 mV. Current amplitude was measured at the end of the step to −110 mV.

hCav1.2/β2/α2δ channels = biological target: T4, hCav1.2/β2/α2δ channels (Homo sapiens, UniProt Q13936); assay: hCav1.2 L-type calcium channel automated patch clamp; details: CHO cells, read-out: Cav1.2 ion channel inhibition
T4 construct: expressed in transfected cells; host or cells: CHO cells
Protocol: as §1, §2
as §3, with “frequency. […]” for “frequency.”
Onset and steady state block of hCav1.2/β2/α2δ channels were measured using a stimulus voltage pattern consisting of a depolarizing test pulse (duration, 200 ms; amplitude, 10 mV) at 10 s intervals from a −80 mV holding potential. Peak current was measured during the step to 10 mV. […]

[3] = biological target: T5, hERG potassium channel (KCNH2, IKr) (Homo sapiens, UniProt Q12809); assay: hERG potassium channel automated patch clamp; details: HEK293 cells expressing cloned hERG potassium channels, read-out: hERG ion channel inhibition
T5 construct: expressed in transfected cells; host or cells: HEK293 cells
Protocol: One concentration of a compound of the present invention was applied for a five-minute interval via disposable polyethylene micropipette tips to naïve cells (n≧2, where n=the number cells/concentration). Each solution exchange, performed in quadruplicate, consisted of aspiration and replacement of 45 μL volume of the extracellular well of the Sealchip16. Duration of exposure to the test compound was three minutes.
Onset and block of hERG current was measured using a stimulus voltage pattern consisting of a 500 ms prepulse to −40 mV (leakage subtraction), a 2-second activating pulse to +40 mV, followed by a 2-second test pulse to −40 mV. Leakage current was calculated from the current amplitude evoked by the prepulse and subtracted from the total membrane current record.

[4] = biological target: T6, hKv1.5 potassium channels (Homo sapiens, UniProt P22460); assay: hKv1.5 potassium channel automated patch clamp; details: CHO cells, read-out: Kv1.5 ion channel inhibition
T6 construct: expressed in transfected cells; host or cells: CHO cells
Protocol: as §1, §2
as §3, with “frequency. […]” for “frequency.”
Onset and steady state block of hKv1.5 current was measured using a pulse pattern with fixed amplitudes (depolarization: +20 mV amplitude, 300 ms duration) repeated at 10 s intervals from a holding potential of −80 mV. Current amplitude was measured at the end of the step to +20 mV.

[5] = biological target: T7, hKvLQT1/hminK potassium channels (Homo sapiens, UniProt P51787); assay: hKvLQT1/hminK potassium channel automated patch clamp; details: CHO cells, read-out: KvLQT ion channel inhibition
T7 construct: expressed in transfected cells; host or cells: CHO cells
Protocol: as §1, §2
In preparation for an automated patch clamp procedure recording session, intracellular solution was loaded into the intracellular compartments of the Sealchip16 or Qplate planar electrode. […] After establishment of a whole-cell configuration, membrane currents were recorded using dual-channel patch clamp amplifiers in the PatchXpress® or Qpatch HT® system. […]
Onset and steady state block of hKvLQT1/hminK current was measured using a pulse pattern with fixed amplitudes (depolarization: +40 mV for 2 s; repolarization: −40 mV for 0.5 s) repeated at 15 s intervals from a holding potential of −80 mV. Current amplitude was measured at the end of the step to +40 mV. […] Leakage current was measured after chromanol 293B addition and subtracted from the total membrane current record.

[6] = phasic block, read-out: Nav1.5 phasic ion channel inhibition
[7] = tonic block, read-out: Nav1.5 tonic ion channel inhibition

T1 sequence (Q14524 whole entry): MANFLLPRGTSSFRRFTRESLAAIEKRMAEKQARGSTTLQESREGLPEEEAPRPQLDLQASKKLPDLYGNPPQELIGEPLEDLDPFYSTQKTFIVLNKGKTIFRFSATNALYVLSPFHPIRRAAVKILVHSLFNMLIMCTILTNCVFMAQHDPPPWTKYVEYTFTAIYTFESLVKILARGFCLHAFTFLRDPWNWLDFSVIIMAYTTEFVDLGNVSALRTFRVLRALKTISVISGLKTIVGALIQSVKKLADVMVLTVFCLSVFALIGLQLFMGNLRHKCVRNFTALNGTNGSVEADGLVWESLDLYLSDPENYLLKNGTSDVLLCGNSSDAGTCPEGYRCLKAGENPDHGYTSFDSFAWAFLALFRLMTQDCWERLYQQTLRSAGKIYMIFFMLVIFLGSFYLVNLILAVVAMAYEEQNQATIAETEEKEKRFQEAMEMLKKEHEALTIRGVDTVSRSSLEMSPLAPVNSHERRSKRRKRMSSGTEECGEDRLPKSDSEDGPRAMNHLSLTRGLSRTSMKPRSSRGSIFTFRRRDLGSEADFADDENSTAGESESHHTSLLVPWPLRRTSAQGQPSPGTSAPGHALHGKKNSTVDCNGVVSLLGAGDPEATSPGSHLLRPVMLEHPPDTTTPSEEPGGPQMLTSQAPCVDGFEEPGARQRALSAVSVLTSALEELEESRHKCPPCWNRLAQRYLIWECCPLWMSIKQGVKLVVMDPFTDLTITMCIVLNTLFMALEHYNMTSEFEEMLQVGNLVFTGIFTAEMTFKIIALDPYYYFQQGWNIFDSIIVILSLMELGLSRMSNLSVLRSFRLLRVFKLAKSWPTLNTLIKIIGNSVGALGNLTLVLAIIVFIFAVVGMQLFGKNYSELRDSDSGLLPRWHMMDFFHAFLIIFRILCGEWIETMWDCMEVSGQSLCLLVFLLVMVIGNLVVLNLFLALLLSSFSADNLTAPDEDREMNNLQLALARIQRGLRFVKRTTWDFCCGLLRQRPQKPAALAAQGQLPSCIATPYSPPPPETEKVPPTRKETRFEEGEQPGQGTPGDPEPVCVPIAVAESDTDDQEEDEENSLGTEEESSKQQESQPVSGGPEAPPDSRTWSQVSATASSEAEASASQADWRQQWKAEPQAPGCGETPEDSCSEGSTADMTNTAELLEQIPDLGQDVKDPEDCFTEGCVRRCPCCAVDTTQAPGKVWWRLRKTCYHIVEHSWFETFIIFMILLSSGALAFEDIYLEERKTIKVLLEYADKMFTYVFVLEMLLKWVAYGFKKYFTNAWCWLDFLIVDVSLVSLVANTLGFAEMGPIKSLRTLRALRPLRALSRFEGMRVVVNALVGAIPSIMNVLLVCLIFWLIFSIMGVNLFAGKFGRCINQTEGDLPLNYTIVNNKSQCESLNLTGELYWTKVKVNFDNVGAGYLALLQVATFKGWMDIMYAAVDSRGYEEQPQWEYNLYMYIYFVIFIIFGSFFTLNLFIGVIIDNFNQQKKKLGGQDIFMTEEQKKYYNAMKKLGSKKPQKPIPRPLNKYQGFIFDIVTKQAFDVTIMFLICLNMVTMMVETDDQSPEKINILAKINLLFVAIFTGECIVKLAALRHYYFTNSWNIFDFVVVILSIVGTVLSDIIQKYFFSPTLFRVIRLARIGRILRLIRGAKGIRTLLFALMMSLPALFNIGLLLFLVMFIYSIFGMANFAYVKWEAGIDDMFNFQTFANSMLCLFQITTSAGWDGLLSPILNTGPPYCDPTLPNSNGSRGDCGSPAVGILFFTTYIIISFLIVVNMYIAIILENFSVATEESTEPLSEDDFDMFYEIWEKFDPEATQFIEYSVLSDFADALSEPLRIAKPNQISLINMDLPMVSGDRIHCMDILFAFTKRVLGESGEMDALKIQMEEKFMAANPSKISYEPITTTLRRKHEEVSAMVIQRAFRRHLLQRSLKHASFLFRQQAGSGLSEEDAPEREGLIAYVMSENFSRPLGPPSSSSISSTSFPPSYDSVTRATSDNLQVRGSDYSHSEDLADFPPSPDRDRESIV
T6 sequence (P22460 whole entry): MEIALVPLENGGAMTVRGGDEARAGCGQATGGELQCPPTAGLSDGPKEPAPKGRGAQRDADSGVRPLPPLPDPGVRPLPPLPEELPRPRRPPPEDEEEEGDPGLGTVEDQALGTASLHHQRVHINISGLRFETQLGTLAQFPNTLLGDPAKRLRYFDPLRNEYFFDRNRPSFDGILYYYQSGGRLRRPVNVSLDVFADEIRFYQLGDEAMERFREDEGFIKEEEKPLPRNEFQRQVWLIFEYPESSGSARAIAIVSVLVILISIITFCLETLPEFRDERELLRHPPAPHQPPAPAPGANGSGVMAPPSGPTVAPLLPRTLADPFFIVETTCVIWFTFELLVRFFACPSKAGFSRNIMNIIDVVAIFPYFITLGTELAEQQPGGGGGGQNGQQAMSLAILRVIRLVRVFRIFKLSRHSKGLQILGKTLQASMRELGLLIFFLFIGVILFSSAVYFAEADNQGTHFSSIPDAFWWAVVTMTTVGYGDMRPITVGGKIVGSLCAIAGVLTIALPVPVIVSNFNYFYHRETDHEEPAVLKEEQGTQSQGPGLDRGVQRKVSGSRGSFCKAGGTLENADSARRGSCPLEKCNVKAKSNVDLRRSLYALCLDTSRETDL
T5 sequence (Q12809 whole entry): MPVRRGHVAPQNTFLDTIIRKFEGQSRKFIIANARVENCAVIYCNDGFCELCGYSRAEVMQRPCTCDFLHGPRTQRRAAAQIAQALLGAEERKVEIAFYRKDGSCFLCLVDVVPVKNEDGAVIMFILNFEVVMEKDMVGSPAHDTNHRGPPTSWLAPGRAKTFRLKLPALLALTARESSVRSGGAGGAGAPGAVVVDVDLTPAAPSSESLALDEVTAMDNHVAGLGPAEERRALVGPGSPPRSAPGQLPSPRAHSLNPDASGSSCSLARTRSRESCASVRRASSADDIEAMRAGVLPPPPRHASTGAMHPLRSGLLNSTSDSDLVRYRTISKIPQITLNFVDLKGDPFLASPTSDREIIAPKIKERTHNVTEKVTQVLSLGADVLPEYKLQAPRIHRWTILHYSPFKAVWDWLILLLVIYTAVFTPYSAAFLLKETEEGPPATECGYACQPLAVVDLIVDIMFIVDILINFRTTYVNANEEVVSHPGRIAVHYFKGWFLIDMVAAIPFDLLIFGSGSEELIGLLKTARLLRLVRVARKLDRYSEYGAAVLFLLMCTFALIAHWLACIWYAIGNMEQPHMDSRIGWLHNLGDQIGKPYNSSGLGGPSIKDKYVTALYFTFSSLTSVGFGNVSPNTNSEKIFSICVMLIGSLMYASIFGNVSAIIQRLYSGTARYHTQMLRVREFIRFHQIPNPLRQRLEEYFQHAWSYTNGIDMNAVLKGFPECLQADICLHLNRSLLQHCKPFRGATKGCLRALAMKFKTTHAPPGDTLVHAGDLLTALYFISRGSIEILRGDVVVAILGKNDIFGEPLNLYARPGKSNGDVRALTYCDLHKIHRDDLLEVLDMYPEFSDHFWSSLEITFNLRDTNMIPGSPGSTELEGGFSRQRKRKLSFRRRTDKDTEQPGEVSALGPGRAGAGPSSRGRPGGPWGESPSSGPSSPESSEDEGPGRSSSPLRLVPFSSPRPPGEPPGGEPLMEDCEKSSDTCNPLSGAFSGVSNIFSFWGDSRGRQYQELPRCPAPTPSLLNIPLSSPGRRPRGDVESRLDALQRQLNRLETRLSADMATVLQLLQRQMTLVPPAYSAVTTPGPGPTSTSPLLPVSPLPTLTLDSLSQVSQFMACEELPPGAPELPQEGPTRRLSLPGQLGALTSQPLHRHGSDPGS

Row | Structure (SMILES) | inhibition at 10 µM (hNav1.5 sodium channels; [6]) [%] | inhibition at 10 µM (hNav1.5 sodium channels; [7]) [%] | inhibition at 1 µM [1] [%] | inhibition at 10 µM [1] [%] | inhibition at 10 µM [2] [%] | inhibition at 10 µM (hCav1.2/β2/α2δ channels) [%] | inhibition at 3 min, 10 µM [3] [%] | inhibition at 10 µM [4] [%] | inhibition at 10 µM [5] [%]
1 | CCCCc1oc2ccccc2c1C(=O)c1cc(C(F)(F)F)c(OCCN(CC)CC)c(C(F)(F)F)c1 [Compound 1, (2-butylbenzofuran-3-yl)(4-(2-(diethylamino)ethoxy)-3,5-bis(trifluoromethyl)phenyl)methanone] | 26 | 11.5 | 16 | 49 | 0.3 | 101 | 55 | 54 | 49
2 | CCCCc1oc2ccccc2c1C(=O)c1cc(I)c(OCCN(CC)CC)c(I)c1 [Amiodarone, 2-n-butyl 3-[4-(2-diethylaminoethoxy) 3,5-diiodobenzoyl] benzofuran, reference compound] | 44 | 6.8 | 4.5 | 23 | 0.9 | 7.7 |  | 0.7 | -0.6
3 | CCCCc1oc2ccccc2c1C(=O)c1cc(I)c(OCCN(CC)CC)c(C(F)(F)F)c1 [Compound 2, (2-butylbenzofuran-3-yl)(4-(2-(diethylamino)ethoxy)-3-iodo-5-(trifluoromethyl)phenyl) methanone] | 44 | 23 | 1.4 | 4.6 | 2.7 | 81 | 75 | 21 | 2.5
4 | CCCCc1oc2ccccc2c1C(=O)c1ccc(OCCN(CC)CC)c(C(F)(F)F)c1 [Compound 3, (2-butylbenzofuran-3-yl)(4-(2-(diethylamino)ethoxy)-3-(trifluoromethyl)phenyl)methanone] | 86 | 48 | 2.1 | 11 | 9.7 | 2 | 74 | 25 | 8.4
